Measured values taken from patent US11046716B2, “Beta-lactamase inhibitors” (priority 2015, dated 2021).

Assays:
[1] = molecular target: T1, SHV-5 (Klebsiella pneumoniae, UniProt P0A3M1); experiment: β-lactamase enzyme inhibition assay, SHV-5 (cefotaxime substrate); assay type: biochemical
T1 construct: made in house; host or cells: E. coli BL21(DE3)
Outline: (§1)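 Compounds are mixed with purified, untagged recombinant β-lactamase and held 15 min at 37 °C. Substrate is then added: nitrocefin (100 μM final) for OXA-1, imipenem for KPC-2, cefotaxime for SHV-5. Absorbance is followed immediately, and percent inhibition per concentration gives the IC50.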

[2] = molecular target: T2, KPC-2 (Klebsiella pneumoniae, UniProt Q9F663); experiment: β-lactamase enzyme inhibition assay, KPC-2 (imipenem substrate); assay type: biochemical; details: Class A; imipenem substrate, 300 nm; read-out: KPC-2
T2 construct: made in house; host or cells: E. coli BL21(DE3)
T2 sequence (Q9F663 25-293, looked up): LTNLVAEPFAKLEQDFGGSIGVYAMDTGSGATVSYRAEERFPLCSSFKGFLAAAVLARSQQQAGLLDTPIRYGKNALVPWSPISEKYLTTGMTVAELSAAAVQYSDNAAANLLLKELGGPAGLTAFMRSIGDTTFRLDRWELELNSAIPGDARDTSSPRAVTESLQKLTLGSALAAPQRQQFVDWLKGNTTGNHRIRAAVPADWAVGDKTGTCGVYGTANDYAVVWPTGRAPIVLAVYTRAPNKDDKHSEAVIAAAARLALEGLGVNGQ
Outline: as §1

[3] = molecular target: T3, VIM-2 (Escherichia coli, UniProt Q5U7L7); experiment: β-lactamase enzyme inhibition assay, VIM-2 (nitrocefin substrate); assay type: biochemical; details: Class B; nitrocefin substrate, 486 nm; read-out: VIM-2
T3 construct: made in house; host or cells: E. coli BL21(DE3)
Outline: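 Enzyme + inhibitor, 37 °C, 15 min; nitrocefin 100 μM final; A486 read for 10 min. % inhibition vs no-inhibitor wells per concentration; IC50 = concentration halving initial hydrolysis rate.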

[4] = molecular target: T4, AmpC (Enterobacter cloacae, UniProt P05364); experiment: β-lactamase enzyme inhibition assay, p99 AmpC (nitrocefin substrate); assay type: biochemical
T4 construct: made in house; host or cells: E. coli BL21(DE3)
T4 sequence (P05364 21-381): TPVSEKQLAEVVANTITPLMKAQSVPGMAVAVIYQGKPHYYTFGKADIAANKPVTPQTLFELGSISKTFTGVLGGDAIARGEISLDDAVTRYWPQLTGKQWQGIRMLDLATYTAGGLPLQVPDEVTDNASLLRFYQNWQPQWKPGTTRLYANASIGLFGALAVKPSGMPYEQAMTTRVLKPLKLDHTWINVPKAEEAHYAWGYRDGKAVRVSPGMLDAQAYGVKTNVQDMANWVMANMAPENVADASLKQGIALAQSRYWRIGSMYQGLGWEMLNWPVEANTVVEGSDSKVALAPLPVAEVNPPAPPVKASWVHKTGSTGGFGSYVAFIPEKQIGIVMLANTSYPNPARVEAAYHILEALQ
Outline: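 Compounds are mixed with purified, untagged recombinant β-lactamase and held 15 min at 37 °C. Substrate is then added. Absorbance is followed immediately, and percent inhibition per concentration gives the IC50.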

[5] = molecular target: OXA-48 (UniProt Q6XEC0); experiment: β-lactamase enzyme inhibition assay, Class D oxacillinase; assay type: biochemical; details: read-out: OXA-48
[6] = tested on: E. coli expressing the Class A Extended Spectrum Beta-Lactamase (ESBL) CTX-M-15; experiment: Broth microdilution MIC assay with ceftazidime, E. coli CTX-M-15; assay type: cell-based; details: Fixed CAZ (ceftazidime) 4 μg/mL; E. coli ESBL4 CTX-M-15
Outline: (§2)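 CAMHB; cpd 2-fold serial dilution, 16–0.125 μg/mL final; β-lactam static 4 μg/ml; CLSI inoculation; 16–20 h, 37° C; MIC read by eye.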

[7] = tested on: E. cloacae expressing the Class C P99; experiment: Broth microdilution MIC assay with ceftazidime, E. cloacae P99; assay type: cell-based; details: Fixed CAZ (ceftazidime) 4 μg/mL; E. cl. 144200 p99 AmpC
Source text: To determine the ability of test compounds to potentiate the inhibition of the growth of bacterial strains that produce beta-lactamase enzymes in the presence of a β-lactam antibiotic, classic cell based broth microdilution MIC assays were employed. Six bacteria strains producing beta-lactamase enzymes were used: E. coli expressing the Class A Extended Spectrum Beta-Lactamase (ESBL) CTX-M-15, E. cloacae expressing the Class C P99, K. pneumoniae expressing the Class A carbapenemase KPC-2, P. aeruginosa expressing the Class B carbapenemase VIM-2, K. pneumoniae expressing the class A carbapenemase KPC-2 and the class B carbapenemase VIM-4, and K. pneumoniae producing the Class D carbapenemase OXA-48. The assay was conducted in Cation Adjusted Mueller Hinton Broth (CAMHB, BD #212322, BD Diagnostic Systems, Sparks, Md.). Bacteria strains were grown for 3-5 hours in CAMBH broth. Test compounds (Examples 1-94) were added to a microtiter plate in 2-fold serial dilutions in CAMHB in a final concentration range of 16 μg/mL to 0.125 μg/ml. An overlay of CAMHB containing a Beta-lactam was added to the compounds at a final static concentration of 4 μg/ml. […] In addition to the titration of test compounds the MICs of a panel of control beta-lactams is also tested to ensure the strains are behaving consistently from test to test. Once the test compound and antibiotics are added the plates can be inoculated according to CLSI broth microdilution method. After inoculation the plates are incubated for 16-20 hours at 37° C. then the Minimal Inhibitory Concentration (MIC) of the test compound is determined visually.
Using the methodology described above, examples of the current invention were evaluated for their ability to inhibit the growth of β-lactamase-producing bacteria in the presence of a β-lactam antibiotic.

[8] = tested on: K. pneumoniae expressing the Class A carbapenemase KPC-2; experiment: Broth microdilution MIC assay with meropenem, K. pneumoniae KPC-2; assay type: cell-based; details: Fixed Mero (meropenem) 4 μg/mL; K. p. 156319 KPC-3
Outline: as §2

[9] = tested on: P. aeruginosa expressing the Class B carbapenemase VIM-2; experiment: Broth microdilution MIC assay with meropenem, P. aeruginosa VIM-2; assay type: cell-based; details: Fixed Mero (meropenem) 4 μg/mL; P. aerug. 2775 VIM-2
Outline: as §2

[10] = tested on: K. pneumoniae expressing the class A carbapenemase KPC-2 and the class B carbapenemase VIM-4; experiment: Broth microdilution MIC assay with meropenem, K. pneumoniae KPC-2 and VIM-4; assay type: cell-based; details: Fixed Mero (meropenem) 4 μg/mL; K. p. A-1797 KPC-2 VIM-4
Outline: as §2

[11] = tested on: K. pneumoniae producing the Class D carbapenemase OXA-48; experiment: Broth microdilution MIC assay with meropenem, K. pneumoniae OXA-48; assay type: cell-based; details: Fixed Mero (meropenem) 4 μg/mL; K. p. 11978 OXA-48
Outline: as §2

T1 sequence (P0A3M1 22-286): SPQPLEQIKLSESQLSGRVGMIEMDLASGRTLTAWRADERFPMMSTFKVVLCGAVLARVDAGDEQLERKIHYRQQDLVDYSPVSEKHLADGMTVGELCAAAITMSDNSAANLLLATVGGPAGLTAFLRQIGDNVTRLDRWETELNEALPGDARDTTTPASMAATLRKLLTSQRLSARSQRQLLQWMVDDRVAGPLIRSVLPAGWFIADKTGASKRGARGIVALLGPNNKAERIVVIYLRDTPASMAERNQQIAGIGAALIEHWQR

Row | Compound | IC50 [1] [nM] | IC50 [2] [nM] | IC50 [3] [nM] | IC50 [4] [nM] | IC50 [5] [nM] | MIC (μg/mL) of Exemplary Compounds in presence of fixed β-lactams: E. coli ESBL4 CTX-M-15 [6] | MIC (μg/mL) of Exemplary Compounds in presence of fixed β-lactams: E. cl. 144200 p99 AmpC [7] | MIC (μg/mL) of Exemplary Compounds in presence of fixed β-lactams: K. p. 156319 KPC-3 [8] | MIC (μg/mL) of Exemplary Compounds in presence of fixed β-lactams: P. aerug. 2775 VIM-2 [9] | MIC (μg/mL) of Exemplary Compounds in presence of fixed β-lactams: K. p. A-1797 KPC-2 VIM-4 [10] | MIC (μg/mL) of Exemplary Compounds in presence of fixed β-lactams: K. p. 11978 OXA-48 [11]
1 | O=C(Cn1cc(CO)nn1)N[C@H]1Cc2cccc(C(=O)O)c2OB1O [Example 1, (R)-2-hydroxy-3-(2-(4-(hydroxymethyl)-1H-1,2,3-triazol-1-yl)acetamido)-3,4-dihydro-2H-benzo[e][1,2]oxaborinine-8-carboxylic acid] | < 100 | < 100 | 1000 to 10000 | < 100 | 100 to 1000 | C (C represents an MIC of <1 μg/mL) | C (C represents an MIC of <1 μg/mL) | B (B represents an MIC between 1 and 16 μg/mL inclusive) | B (B represents an MIC between 1 and 16 μg/mL inclusive) | B (B represents an MIC between 1 and 16 μg/mL inclusive) | B (B represents an MIC between 1 and 16 μg/mL inclusive)
2 | NCc1cn(CC(=O)N[C@H]2Cc3cccc(C(=O)O)c3OB2O)nn1 [Example 2, (R)-3-(2-(4-(aminomethyl)-1H-1,2,3-triazol-1-yl)acetamido)-2-hydroxy-3,4-dihydro-2H-benzo[e][1,2]oxaborinine-8-carboxylic acid] | < 100 | < 100 | < 100 | < 100 | 100 to 1000 | C (C represents an MIC of <1 μg/mL) | C (C represents an MIC of <1 μg/mL) | C (C represents an MIC of <1 μg/mL) | C (C represents an MIC of <1 μg/mL) | C (C represents an MIC of <1 μg/mL) | B (B represents an MIC between 1 and 16 μg/mL inclusive)
3 | N=C(N)NCc1cn(CC(=O)N[C@H]2Cc3cccc(C(=O)O)c3OB2O)nn1 [Example 3, (R)-3-(2-(4-(guanidinomethyl)-1H-1,2,3-triazol-1-yl)acetamido)-2-hydroxy-3,4-dihydro-2H-benzo[e][1,2]oxaborinine-8-carboxylic acid] | < 100 | < 100 | < 100 | < 100 | < 100 | C (C represents an MIC of <1 μg/mL) | C (C represents an MIC of <1 μg/mL) | C (C represents an MIC of <1 μg/mL) | C (C represents an MIC of <1 μg/mL) | C (C represents an MIC of <1 μg/mL) | C (C represents an MIC of <1 μg/mL)
4 | CC(C)NCc1cn(CC(=O)N[C@H]2Cc3cccc(C(=O)O)c3OB2O)nn1 [Example 4, (R)-2-hydroxy-3-(2-(4-((isopropylamino)methyl)-1H-1,2,3-triazol-1-yl)acetamido)-3,4-dihydro-2H-benzo[e][1,2]oxaborinine-8-carboxylic acid] | 100 to 1000 | 100 to 1000 | < 100 | < 100 | < 100 | C (C represents an MIC of <1 μg/mL) | C (C represents an MIC of <1 μg/mL) | B (B represents an MIC between 1 and 16 μg/mL inclusive) | C (C represents an MIC of <1 μg/mL) | C (C represents an MIC of <1 μg/mL) | B (B represents an MIC between 1 and 16 μg/mL inclusive)
5 | CC(C)NCCc1cn(CC(=O)N[C@H]2Cc3cccc(C(=O)O)c3OB2O)nn1 [Example 7, (R)-2-hydroxy-3-(2-(4-(2-(isopropylamino)ethyl)-1H-1,2,3-triazol-1-yl)acetamido)-3,4-dihydro-2H-benzo[e][1,2]oxaborinine-8-carboxylic acid] | 100 to 1000 | 1000 to 10000 | 1000 to 10000 | < 100 | 1000 to 10000 | C (C represents an MIC of <1 μg/mL) | C (C represents an MIC of <1 μg/mL) | C (C represents an MIC of <1 μg/mL) | C (C represents an MIC of <1 μg/mL) | B (B represents an MIC between 1 and 16 μg/mL inclusive) | B (B represents an MIC between 1 and 16 μg/mL inclusive)
6 | O=C(Cn1nnc(CO)c1CO)N[C@H]1Cc2cccc(C(=O)O)c2OB1O [Example 8, (R)-3-(2-(4,5-bis(hydroxymethyl)-1H-1,2,3-triazol-1-yl)acetamido)-2-hydroxy-3,4-dihydro-2H-benzo[e][1,2]oxaborinine-8-carboxylic acid] | < 100 | 100 to 1000 | 1000 to 10000 | 1000 to 10000 | 100 to 1000 | C (C represents an MIC of <1 μg/mL) | C (C represents an MIC of <1 μg/mL) | B (B represents an MIC between 1 and 16 μg/mL inclusive) | B (B represents an MIC between 1 and 16 μg/mL inclusive) | B (B represents an MIC between 1 and 16 μg/mL inclusive) | B (B represents an MIC between 1 and 16 μg/mL inclusive)
7 | O=C(Cn1cc(-c2cccnc2)nn1)N[C@H]1Cc2cccc(C(=O)O)c2OB1O [Example 12, (R)-2-hydroxy-3-(2-(4-(pyridin-3-yl)-1H-1,2,3-triazol-1-yl)acetamido)-3,4-dihydro-2H-benzo[e][1,2]oxaborinine-8-carboxylic acid] | < 100 | < 100 | 1000 to 10000 | < 100 | 100 to 1000 | C (C represents an MIC of <1 μg/mL) | C (C represents an MIC of <1 μg/mL) | B (B represents an MIC between 1 and 16 μg/mL inclusive) | B (B represents an MIC between 1 and 16 μg/mL inclusive) | A (A represents an MIC>16 μg/mL) | B (B represents an MIC between 1 and 16 μg/mL inclusive)
